Where two headings read alike, the source gives them in different places.
Columns and labels:
[1] = test system: IncW plasmid R388 conjugation; test: plate-conjugation assay, R388; format: cell-based, E. coli; settings: for COIN activity on R388 conjugation (CF): 1 mM
Method: (§1) For the plate-mating procedure, a 200 μl mixture of equal volumes of donor and recipient cultures previously washed, both in stationary phase, was centrifuged and resuspended in 15 μl LB-broth. 5 μl of this mixture were placed on top of 96-well microtiter plate wells containing 150 μl LB-agar (± COINs) and conjugation was allowed to proceed, in general, for 1 h at 37°C. The temperature-sensitive IncH plasmid drR27 was allowed to conjugate for 2 h at 25°C [35]. Bacteria were then resuspended in 150 μl M9 broth and corresponding dilutions were plated on selective media. CF was calculated as the number of transconjugant cells per donor, whereas MF was calculated as the number of cells receiving the mobilizable plasmid per donor. Since this type of frequency data were log-normally distributed, means are calculated using decimal logarithms of data.

[2] = test system: superoxide anion production; settings: cited from earlier work
[3] = test system: U937; parameters: method as in PMID 26055397; settings: at 100 μM; cited from earlier work
[4] = test system: colorectal carcinoma cells HCT-116; test: cell culture cytotoxicity assay, HCT-116; format: cell-based; settings: Homo sapiens, mean of three independent experiments, read-out: Toxic-IC50 HCT-116
Method: (§2) Cell culture cytotoxicity assays were performed as described using human foreskin fibroblasts ATCC SCRC-1041 [38], lung carcinoma cells A549 [39], colorectal carcinoma cells HCT-116 [40], pancreatic adenocarcinoma cells PNS1 [41] or glioblastoma multiforme cells T98G [42]. Antibacterial activity was determined using a conventional microtiter broth-dilution technique for two reference strains, S. aureus CECT 794 and M. smegmatis DSMZ 43756. Antifungal activity was measured using the reference method antifungal broth dilution susceptibility test (National Committee for Clinical Laboratory Standars) against two species: A. nidulans (Microorganisms Collection of Biomar Microbial Technologies) and C. albicans CECT 1394.

[5] = test system: S. aureus CECT 794; test: antibacterial activity, microtiter broth-dilution, S. aureus; format: cell-based; settings: Staphylococcus aureus, CECT794, mean of three independent experiments, read-out: Toxic-IC90 Saur
Method: as §2

[6] = test system: glioblastoma multiforme cells T98G; test: cell culture cytotoxicity assay, T98G; format: cell-based; settings: Homo sapiens, mean of three independent experiments, read-out: Toxic-IC50 T98G
Method: as §2

[7] = test system: mobilization of RSF1010; test: mobilization by plate-conjugation assay, RSF1010; format: cell-based, E. coli; settings: 0.4 mM; helper plasmid pRL443
Method: as §1

[8] = test system: R388 conjugation (R388 derivative pJC01); test: fluorescence-based HTC assay; format: cell-based, E. coli; settings: for IC50: Escherichia coli, read-out: COIN-IC50
[9] = test system: mobilization of CloDF13; test: mobilization by plate-conjugation assay, CloDF13; format: cell-based, E. coli; settings: 0.4 mM; helper plasmid R388, pOX38 or R100-1
Method: as §1

[10] = test system: lung carcinoma cells A549; test: cell culture cytotoxicity assay, A549; format: cell-based; settings: Homo sapiens, mean of three independent experiments, read-out: Toxic-IC50 A549
Method: as §2

[11] = test system: Bacillus cereus; parameters: method as in PMID 26055397; settings: cited from earlier work
[12] = test system: IncFII plasmid R100-1 conjugation; test: plate-conjugation assay, R100-1; format: cell-based, E. coli; settings: 0.4 mM
Method: as §1

[13] = test system: Enterococcus faecalis; parameters: method as in PMID 26055397; settings: cited from earlier work
[14] = test system: C. albicans; parameters: method as in PMID 26055397; settings: cited from earlier work
[15] = test system: K562; parameters: method as in PMID 26055397; settings: at 100 μM; cited from earlier work
[16] = test system: M. smegmatis DSMZ 43756; test: antibacterial activity, microtiter broth-dilution, M. smegmatis; format: cell-based, Mycobacterium smegmatis; settings: Mycolicibacterium smegmatis, DSMZ43756, mean of three independent experiments, read-out: Toxic-IC90 Msme
Method: as §2

[17] = test system: bacterial and fungal strains; test: antibacterial and antifungal activities (summary statement); format: cell-based; settings: summary of Table 1; read-out: toxic-IC90 values, antibacterial and antifungal activities
Method: as §2

[18] = test system: Proteus mirabilis; parameters: method as in PMID 26055397; settings: cited from earlier work
[19] = test system: Klebsiella pneumoniae; parameters: method as in PMID 26055397; settings: cited from earlier work
[20] = test system: human foreskin fibroblasts ATCC SCRC-1041; test: cell culture cytotoxicity assay, fibroblasts; format: cell-based; settings: Fibroblast, mean of three independent experiments, read-out: Toxic-IC50 Fibroblasts
Method: as §2

[21] = test system: Raji; parameters: method as in PMID 26055397; settings: at 100 μM; cited from earlier work
[22] = test system: PSN1 pancreatic adenocarcinoma cells; test: cell culture cytotoxicity assay, PSN1; format: cell-based; settings: Homo sapiens, mean of three independent experiments, read-out: Toxic-IC50 PSN1
Method: as §2

[23] = test system: IncP plasmid conjugation; test: plate-conjugation assay, IncP plasmids; format: cell-based, E. coli; settings: 0.4 mM
Method: as §1

[24] = test system: A. nidulans; test: antifungal broth dilution susceptibility test, A. nidulans; format: cell-based; settings: Aspergillus nidulans, mean of three independent experiments, read-out: Toxic-IC90 Anid
Method: as §2

[25] = test system: mobilization of ColE1; test: mobilization by plate-conjugation assay, ColE1; format: cell-based, E. coli; settings: 0.4 mM
Method: as §1

[26] = test system: C. albicans CECT 1394; test: antifungal broth dilution susceptibility test, C. albicans; format: cell-based; settings: Candida albicans, CECT1394, mean of three independent experiments, read-out: Toxic-IC90 Calb
Method: as §2

[27] = test system: IncN plasmid conjugation; test: plate-conjugation assay, IncN plasmids; format: cell-based, E. coli; settings: 0.4 mM
Method: as §1

[28] = test system: Jurkat; parameters: method as in PMID 26055397; settings: at 100 μM; cited from earlier work
[29] = test system: R388 conjugation (R388 derivative pJC01); parameters: method as in PMID 26330514; settings: read-out: COIN-IC50; cited from earlier work
[30] = test system: IncW plasmid R388 (derivative pSU2007::Tnlux) conjugation; settings: COIN threshold; cited from earlier work
[31] = test system: Phytophthora infestans; settings: at comparable concentrations; cited from earlier work
[32] = test system: Brevibacillus brevis; parameters: method as in PMID 24605144; settings: at a concentration of 185 μM; cited from earlier work
[33] = test system: Mucor miehei; parameters: method as in PMID 24605144; settings: at a concentration of 185 μM; cited from earlier work
[34] = test system: Magnaporthe oryzae; settings: read-out: toxic-IC50, inhibition of conidial germination; cited from earlier work
[35] = test system: Paecilomyces variotii; parameters: method as in PMID 24605144; settings: at a concentration of 185 μM; cited from earlier work
[36] = test system: Botrytis cinerea; parameters: method as in PMID 24605144; settings: at comparable concentrations; cited from earlier work
[37] = test system: HeLaS3 cells; parameters: method as in PMID 24605144; settings: at a concentration of 185 μM; cited from earlier work

| SMILES | inhibition of superoxide anion production [2] | IC50 [4] [µM] | IC90 [5] [µM] | IC50 [6] [µM] | IC50 [10] [µM] | IC90 [16] [µM] | IC90 [17] [µM] | IC50 [20] [µM] | IC50 [22] [µM] | IC90 [24] [µM] | IC90 [26] [µM] | further results |
| --- | --- | --- | --- | --- | --- | --- | --- | --- | --- | --- | --- | --- |
| CC1C=CC2CC(C)(O)CC(C)C2C1/C=C/C=C/C(=O)O (centres unmarked) [TZA-E] | inhibitors of superoxide anion production |  |  |  |  |  |  |  |  |  |  | COIN activity on R388 conjugation (CF) ([1]; plate-conjugation assay): did not show significant COIN activity |
| CC1CC(C)C2C(C=CC(C)C2C=CC=CC(=O)O)C1 (centres unmarked) [TZA-B, tanzawaic acid B] | inhibitor of superoxide anion production | 90 | 120 | 180 | 90 | 120 | > 100 | 180 | 180 | > 230 | > 230 | response of U937 cells [3]: no response; effect on mobilization (MF) [7]: unaffected; R388 conjugation (relative CF) ([8]; 0.4 mM, relative to control without COINs (100%)): 2%; IC50 [8]: ~50 µM; effect on mobilization (MF) [9]: affected; antimicrobial activity, concentration below which no effect [11]: ≥ 364 µM; inhibition of conjugation [12]: ~100 fold; antimicrobial activity, concentration below which no effect [13]: ≥ 364 µM; antimicrobial activity, concentration below which no effect [14]: ≥ 364 µM; response of K562 cells [15]: no response; inhibition of conjugation ([1]; 0.4 mM, IncW plasmid R388): ~100 fold; R388 conjugation (relative CF) ([1]; 0.4 mM, plate-conjugation assay): 2 ± 2%; antimicrobial activity, concentration below which no effect [18]: ≥ 364 µM; antimicrobial activity, concentration below which no effect [19]: ≥ 364 µM; response of Raji cells [21]: no response; effect on conjugation [23]: not affected; effect on mobilization (MF) ([25]; helper plasmid R388, pOX38 or R100-1): affected; effect on mobilization (MF) ([25]; helper plasmid pRL443): unaffected; effect on conjugation [27]: not affected; response of Jurkat cells [28]: no response |
| CCCCCCCCCCCCCCCC#CC(=O)O [2-ODA, 2-octadecynoic acid] |  | 70 | 350 | 150 | 90 | 7 |  | 90 | 180 | 220 | 220 | IC50 [29]: ~50 µM |
| CCCCC/C=C\C/C=C\CCCCCCCC(=O)O [Linoleic acid] |  | 180 | > 360 | 180 | 90 | 360 | > 100 | 300 | 90 | > 360 | > 360 | IC50 [30]: ~50 µM |
| Cc1ccc2c(c1/C=C/C=C/C(=O)O)C(C)CC(C)C2 (centres unmarked) [TZA-A, tanzawaic acid A] | inhibitors of superoxide anion production | 70 | 230 | 90 | 60 | 230 | > 100 | 190 | 90 | > 230 | > 230 | effect on germination of Phytophthora infestans [31]: not affected; activity against Brevibacillus brevis [32]: weak activity; IC50 [8]: ~50 µM; activity against Mucor miehei [33]: weak activity; IC50 [34]: 37 µM; activity against Paecilomyces variotii [35]: weak activity; COIN activity on R388 conjugation (CF) ([1]; plate-conjugation assay): inhibited R388 conjugation to levels similar to TZA-B; effect on germination of Botrytis cinerea [36]: not affected; activity against HeLaS3 cells [37]: weak activity |
| CCCCCCCC/C=C\CCCCCCCC(=O)O [Oleic acid] |  | 180 | > 420 | 180 | 40 | > 420 | > 100 | 350 | 80 | > 220 | > 220 | IC50 [30]: ~50 µM |
| CCCCCCCCCCCCCC#CC(=O)O [2-HDA, 2-hexadecynoic acid] |  | 40 | 30 | 100 | 40 | 8 |  | 100 | 80 | 8 | < 4 | IC50 [29]: ~50 µM |

— PMC4727781, “Tanzawaic Acids, a Chemically Novel Set of Bacterial Conjugation Inhibitors” (PLoS ONE, 2016)
